{"source": "patent US20080305118A1", "about": "“Treatment Of Type 1 Diabetes With Inhibitors Of Macrophage Migration Inhibitory Factor” (The Feinstein Institute for Medical Research, priority 2004, published 2008)", "key": {"[1]": {"test_system": "MLD-STZ-induced diabetic mice", "assay": "MLD-STZ-induced diabetes, weekly blood glucose, prophylactic treatment", "type": "in vivo, mouse", "details": "CBA/H mice; prophylactic i.p. treatment; FIG. 2B", "experimental": "Diabetes induction and in vivo treatments. Diabetes was induced in adult male mice with multiple subtoxic doses of streptozotocin (MLD-STZ, 40 mg/kg body wt/day i.p. for five consecutive days) as described (21). The impact of polyclonal antibody against MIF was studied by i.p. injection of mice (5-10 per treatment group) with 5 mg/kg of rabbit IgG antibody against mouse […] on days −3, −1, 2 and 5 in relation to the first STZ dose. The effect of ISO-1 was studied by i.p. injection of the drug at a dose of 1 mg/mouse/day, for 14 consecutive days, starting 3 days prior to the first injection with STZ. Control animals received either nonimmune IgG or ISO-1 diluent (DMSO/H2O). Mice were monitored for diabetes by weekly measurement of blood glucose levels using a glucometer (Sensimac®, Imaco, Ludersdorf, Germany). Clinical diabetes was defined by hyperglycemia in non-fasted animals (blood glucose over 11.8 mmol/l)."}, "[2]": {"test_system": "pancreatic islets of MLD-STZ diabetic mice", "assay": "Histological examination of pancreas, insulitis score", "type": "in vivo, mouse", "details": "CBA/H mice; day 15; FIG. 2D", "experimental": "Histological and immunohistochemical examination of pancreas. Pancreata were fixed in neutral buffered formalin and then embedded in paraffin. The fixed blocks were sectioned (7 μm thick) and haematoxylin and eosin staining was performed to assess the incidence and degree of inflammatory changes. Insulitis scoring was performed as previously described (10, 11) by examining at least 15 islets per mouse and graded in a blinded fashion as follows: 0, no infiltrate; 1, peri-ductal infiltrate; 2, peri-islet infiltrate; 3, intraislet infiltrate; and 4, intraislet infiltrate associated with β-cell destruction. At least 15 islets were counted for each mouse. A mean score for each pancreas was calculated by dividing the total score by the number of islets examined. Insulitis scores (IS) are expressed as mean values±SD. Immunohistochemistry was performed on paraffin-embedded sections of formalin-fixed tissue using a previously described microwave-based method (24). For MIF immunostaining, a polyclonal rabbit anti-MIF IgG and control rabbit IgG were used. The examined area of the islet was outlined, and the percentage of MIF-positive islet cells was measured using quantitative Image Analysis System (Optima 6.5, Media Cybernatics, Silver Springs, Md.)."}, "[3]": {"test_system": "spleen mononuclear cells (SMNC)", "assay": "Ex vivo lymphoproliferative response (3H-thymidine incorporation) after in vivo treatment", "set-up": "species or system mouse", "details": "CBA/H mice treated in vivo; splenocytes day 15 after MLD-STZ; FIG. 3A", "experimental": "(§1) Ex vivo lymphoproliferative response and adhesion assay. Spontaneous proliferation of SMNC was determined by incubation of cells (5×10^5/well) from each individual animal in 96-well microplates with 1 μCi ^3H-thymidine (^3H-TdR, ICN). Incorporated radioactivity was measured after 24 h in a Beckman liquid scintillation counter. The analysis of spontaneous adhesion of SMNC (2.5×10^5/well) to a monolayer of L929 fibroblasts or plastic was performed by using crystal violet assay as previously described (21). The absorbance corresponding to the number of adherent cells, was measured at 570 nm."}, "[4]": {"test_system": "spleen mononuclear cells (SMNC)", "assay": "Ex vivo spontaneous adhesion assay (crystal violet) after in vivo treatment", "set-up": "species or system mouse", "details": "SMNC from mice treated in vivo, FIG. 3B", "experimental": "as §1"}, "[5]": {"test_system": "TNF-α", "assay": "Ex vivo TNF-α production, L929 cytolytic bioassay of culture supernatants", "type": "in vivo, mouse", "details": "day 15, 48 h culture, FIG. 4", "experimental": "Cell incubation and determination of pro-inflamatory mediators. Resident peritoneal cells (PC), spleen mononuclear cells (SMNC), and pancreatic islets were isolated from individual anti-MIF IgG-treated, ISO-1-treated or control diabetic mice on day 15 after the first injection of STZ, as well as from normal untreated animals. SMNC (5×10^6/well) prepared by Ficoll gradient centrifugation, resident PC (2.5×10^5/well) collected by peritoneal lavage with cold PBS, or pancreatic islets (150-200 islets/well) prepared by collagenase digestion and density gradient purification as described (22), were incubated in 24-well Limbro culture plates in 1 ml of RPMI-1640 culture medium containing 5% fetal bovine serum (FBS) and cell supernatants were collected after 48 h. Concentration of bioactive TNF-α in culture supernatant was determined as previously described (22) using a cytolytic bioassay with actinomycin D-treated fibrosarcoma cell line L929. Nitrite accumulation, an indicator of NO production, was determined in cell culture supernatant using the Griess reaction (22). The expression of intracellular MIF, IFN-γ, MHC II, or iNOS was determined by slight modification of cell-based ELISA protocol (23). Spleen MNC (5×10^5/well) or PC (2.5×10^5/well), were allowed to adhere to poly-L-lysine-precoated 96-well microplates. Following fixation with 4% paraformaldehyde, and washing with 0.1% Triton X-100 in PBS (T/PBS), endogenous peroxidase was quenched with 1% H2O2 in T/PBS, and reaction blocked for 1 h at 37° C. with 10% FBS in T/PBS. […] After washing, the cells were incubated for 1 h with the corresponding secondary antibody (goat anti-rabbit Ig(H+L)-HRP, goat anti-rat Ig(H+L)-HRP or goat anti-mouse Ig(F(ab′)2-specific)-HRP washed again and incubated for 15 min at room temperature in dark with 50 μl of a solution containing 0.4 mg/ml OPD (Sigma), 11.8 mg/ml Na2HPO4×2H2O, 7.3 mg/ml citric acid and 0.015% H2O2. The reaction was stopped with 3N HCl, and the absorbance was measured in a microplate reader at 492 nm in a Titertek microplate reader (Flow)."}, "[6]": {"test_system": "iNOS", "assay": "Intracellular iNOS expression, cell-based ELISA", "type": "in vivo, mouse", "details": "macrophages from treated animals vs diabetic animals; FIG. 5A", "experimental": "Cell incubation and determination of pro-inflamatory mediators. Resident peritoneal cells (PC), spleen mononuclear cells (SMNC), and pancreatic islets were isolated from individual anti-MIF IgG-treated, ISO-1-treated or control diabetic mice on day 15 after the first injection of STZ, as well as from normal untreated animals. […] Concentration of bioactive TNF-α in culture supernatant was determined as previously described (22) using a cytolytic bioassay with actinomycin D-treated fibrosarcoma cell line L929. Nitrite accumulation, an indicator of NO production, was determined in cell culture supernatant using the Griess reaction (22). The expression of intracellular MIF, IFN-γ, MHC II, or iNOS was determined by slight modification of cell-based ELISA protocol (23). […] After washing, the cells were incubated for 1 h with the corresponding secondary antibody (goat anti-rabbit Ig(H+L)-HRP, goat anti-rat Ig(H+L)-HRP or goat anti-mouse Ig(F(ab′)2-specific)-HRP washed again and incubated for 15 min at room temperature in dark with 50 μl of a solution containing 0.4 mg/ml OPD (Sigma), 11.8 mg/ml Na2HPO4×2H2O, 7.3 mg/ml citric acid and 0.015% H2O2. The reaction was stopped with 3N HCl, and the absorbance was measured in a microplate reader at 492 nm in a Titertek microplate reader (Flow)."}, "[7]": {"biological_target": "T1, MIF tautomerase (Homo sapiens, UniProt P14174)", "T1 sequence (P14174 2-115 limits assumed)": "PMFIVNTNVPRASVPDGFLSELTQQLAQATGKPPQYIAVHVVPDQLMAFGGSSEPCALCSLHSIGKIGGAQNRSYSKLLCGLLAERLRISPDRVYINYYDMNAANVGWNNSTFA", "details": "reference (20); cited from earlier work"}, "[8]": {"details": "cells from mice treated in vivo"}}}
{"smiles": "COC(=O)C[C@@H]1CC(c2ccc(O)cc2)=NO1", "note": "(racemic) [ISO-1, (S,R)-3-(4-hydroxyphenyl)-4,5-dihydro-5-isoxazole acetic acid methyl ester]", "values": [{"measurement": "MLD-STZ-induced hyperglycemia (blood glucose levels)", "setting": "[1]", "result": "remained euglycemic"}, {"measurement": "degree of islet infiltration (insulitis)", "setting": "[2]", "result": "attenuated inflammation of the islets"}, {"measurement": "SMNC proliferation, 3H-thymidine incorporation", "setting": "[3]", "result": "25637±2018", "unit": "cpm"}, {"measurement": "spontaneous adhesion of SMNC to plastic", "setting": "[4]", "result": "significantly inhibited"}, {"measurement": "adhesion of SMNC to fibroblasts", "setting": "[4]; L929 fibroblasts", "result": "significantly inhibited"}, {"measurement": "TNF-α production by peritoneal macrophages", "setting": "[5]; [8]", "result": "down-regulated"}, {"measurement": "TNF-α production by spleen MNC", "setting": "[5]; [8]", "result": "down-regulated"}, {"measurement": "TNF-α production by pancreatic islet cells", "setting": "[5]; islets from mice treated in vivo", "result": "down-regulated"}, {"measurement": "intracellular expression of iNOS in macrophages", "setting": "[6]", "result": "significantly reduced"}, {"measurement": "MIF tautomerase and biological activity", "setting": "[7]", "result": "inhibits"}]}
